Measured values taken from patent US12342818B2, “Formulations and methods for controlling invasive amphibians” (priority 2019, dated 2025).

Tested on: Adult cane toads (Rhinella marina)
Experiment: Cane toad spray trial (formulation sprayed on ventral and/or dorsal surface)
Type: in vivo
Conditions: for Mortality Rate / Avg. Time Until Breathing & Heart Beat Not Detected / Avg. Time to Unresponsive: 48 hrs trial
Method: Adult cane toads (Rhinella marina) (>[…] SUL=snout-urostyle length) were collected around Townsville one or two nights prior to the trials. The toads were kept in two Nally bins with all males in one, and all females in the other for ease of sorting. […]
• 1. The compound and carrier controls were prepared on day of testing. • 2. Toads were weighed, measured and placed in individual buckets and left for 10 minutes to settle. • 3. 1.5 ml of the formulation or carrier or water was delivered to the ventral and/or dorsal surface of each toad via a spray bottle (2×1 ml sprays and accounting for approximately 0.5 ml loss during spraying). • 4. Measurements of toad behaviour and heart rate were recorded at T=5, 10, 15, 20, 25, 30, 45, 60, 75, 90, 105, 120 minutes, plus 4-6 hours, 10-12 hours, 16-18 hours and 24 hours after spraying. If toads were still unconscious but not dead (if there was a heartbeat) within 24 hours, they were checked again at 48 hours. The following measurements were taken at each time interval: • Consciousness: Righting reflex was tested by flipping toads onto their backs and their ability to right themselves was recorded as “fast,” “slow,” or “unresponsive”. Observations were made of the palpebral reflex and involuntary muscular movement: Palpebral reflex was tested by gently tapping the palpebral area with the finger and observing eyelid movement. Involuntary muscular movement was tested via the withdrawal reflex, by grasping each limb distally and extending it. • Breathing/heart rate (did the toad appear to be breathing or was there a detectable heart beat); • Side effects (any other noticeable effects of the formulation such as twitching, distress or agitation, poison gland discharge, muscle rigidness, gasping, or ventral redness).
Even when no vital signs are detected externally during the experimental process, previous studies have shown that toads may appear dead and still have a heartbeat. At the completion of the trials, all animals were anaesthetised with a lethal dose MS222 (tricaine mesylate) then dissected to determine if the heart was still beating and to look for any signs of internal necrosis.

[1] = carrier ethanol, 84.2 g/L, 2 sprays ventral + dorsal, 6 toads
[2] = carrier ethanol, 168.36 g/L, 2 sprays ventral + dorsal, 6 toads
[3] = carrier isopropanol, 84.2 g/L, 2 sprays ventral + dorsal, 6 toads
[4] = carrier isopropanol, 126.3 g/L, 2 sprays dorsal, 6 toads
[5] = carrier isopropanol, 126.3 g/L, 2 sprays dorsal, 24 toads (repeat trial)
[6] = carrier isopropanol, 140 g/L, 2 sprays dorsal, 22 toads
[7] = carrier isopropanol, 168.36 g/L, 2 sprays ventral + dorsal, 6 toads

SMILES: OCCOc1ccccc1 [2-Phenoxyethanol]
- Mortality Rate (carrier ethanol, 21.05 g/L, 2 sprays ventral + dorsal, 6 toads): 0%
- Avg. Time Until Breathing & Heart Beat Not Detected [1]: 405 min
- Avg. Time to Unresponsive [1]: 15 min
- Mortality Rate [1]: 100%
- Avg. Time Until Breathing & Heart Beat Not Detected [2]: 20 min
- Avg. Time to Unresponsive [2]: 13.33 min
- Mortality Rate [2]: 100%
- Avg. Time Until Breathing & Heart Beat Not Detected [3]: 40.83 min
- Avg. Time to Unresponsive [3]: 16.67 min
- Mortality Rate [3]: 100%
- Avg. Time Until Breathing & Heart Beat Not Detected [4]: 23 min
- Avg. Time to Unresponsive [4]: 18.3 min
- Mortality Rate [4]: 100%
- Avg. Time Until Breathing & Heart Beat Not Detected [5]: 24.25 min
- Avg. Time to Unresponsive [5]: 18 min
- Mortality Rate [5]: 95.8%
- Avg. Time Until Breathing & Heart Beat Not Detected [6]: 22.05 min
- Avg. Time to Unresponsive [6]: 17.95 min
- Mortality Rate [6]: 100%
- Avg. Time Until Breathing & Heart Beat Not Detected [7]: 14.17 min
- Avg. Time to Unresponsive [7]: 11.67 min
- Mortality Rate [7]: 100%
- Avg. Time to Unresponsive (carrier propylene glycol, 168.36 g/L, 2 sprays ventral + dorsal, 6 toads): 15.83 min
- Avg. Time to Unresponsive (carrier water, 168.36 g/L, 2 sprays ventral + dorsal, 6 toads): 14.166 min
- effectiveness among potential toxicants tested (in different carriers) (compared with benzocaine, sodium nitrite, tricaine mesylate, sodium monesnsin): only real effective candidate
- effectiveness as toad control (concentration greater than 40 g/L in a carrier of either ethanol or isopropanol): effective control
- effectiveness as toad control (formulations with water as a carrier): not effective
